Reference: ChEMBL document CHEMBL5338746, “New Generation of sGC Stimulators: Discovery of Imidazo[1,2-a]pyridine Carboxamide BAY 1165747 (BAY-747), a Long-Acting Soluble Guanylate Cyclase Stimulator for the Treatment of Resistant Hypertension” (J Med Chem, 2023)
Converted amounts (≈) assume the structure as drawn. Values belong to the compound of their own block, whether it stands above or below them. The source made the active and inactive calls. No cut-off for these calls is given here.

How the values were obtained:
[1] = Metabolic stability in rat hepatocytes assessed as clearance measured upto 90 mins by LC-MS/MS analysis; format: ADME, cell-based, Hepatocyte
[2] = target: Soluble guanylate cyclase alpha1/beta1 complex (Rattus norvegicus) (UniProt P19686+P20595); test: Stimulation of recombinant rat sGC alpha1/beta1 expressed in CHO cells assessed as formation of cGMP from GTP by measuring concentration for >3-fold increase in the basal luminescence value by luminescence based analysis; format: cell-based; settings: filed as activator
[3] = Efflux ratio of apparent permeability basolateral to apical side over apical to basolateral side in human Caco-2 cells incubated for 2 hrs by LC-MS/MS analysis; format: ADME, cell-based
[4] = Half life in Wistar rat at 0.3 mg/kg, iv administered as infusion by LC-MS/MS analysis; format: ADME, organism-based; settings: in vivo
[5] = Solubility of compound in PBS at pH 6.5 measured for 24 hrs by LC-MS/MS analysis; format: physicochemical
[6] = Fraction unbound in po or iv dosed Wistar rat; format: ADME, organism-based; settings: in vivo
[7] = Apparent permeability across apical to basolateral side in human Caco-2 cells incubated for 2 hrs by LC-MS/MS analysis; format: ADME, cell-based
[8] = Volume of distribution at steady state in Wistar rat at 0.3 mg/kg, iv administered as infusion by LC-MS/MS analysis; format: ADME, organism-based; settings: in vivo, read-out: Vdss
[9] = Blood clearance in Wistar rat at 0.3 mg/kg, iv administered as infusion incubated for 20 mins by HR LC-MS/MS analysis; format: ADME, organism-based; settings: whole blood
[10] = Oral bioavailability in Wistar rat at 1 mg/kg by LC-MS/MS analysis; format: ADME, organism-based; settings: in vivo
Rattus norvegicus [11] = test: Antihypertensive activity in spontaneous hypertensive Wistar rat model assessed as reduction in blood pressure po administered bolus injection by radiotelemetry analysis; format: functional, organism-based; settings: dose 0.3 mg/kg
Rattus norvegicus [12] = test: Antihypertensive activity in spontaneous hypertensive Wistar rat model assessed as reduction in blood pressure at 10 mg/kg, po measured after 12 hrs by radiotelemetry analysis; format: functional; set-up: scale not given: the % may be the effect or the level left
Rattus norvegicus [13] = test: Antihypertensive activity in conscious normotensive Wistar rat model assessed as increase in heart rate at 3 mg/kg, po measured after 14 hrs by radiotelemetry; format: functional, organism-based
Rattus norvegicus [14] = test: Hypotensive effect in conscious normotensive Wistar rat assessed as reduction in arterial blood pressure administered orally for 21 days by tail-cuff method; format: functional, organism-based; settings: dose 0.3-1 mg/kg, route po, time 21.0 day
Rattus norvegicus [15] = test: Antihypertensive activity in conscious normotensive Wistar rat model assessed as increase in heart rate at 10 mg/kg, po measured after 14 hrs by radiotelemetry; format: functional, organism-based
Rattus norvegicus [16] = test: Hypotensive effect in conscious normotensive Wistar rat assessed as reduction in arterial blood pressure at 10 mg/kg, po administered for 21 days by tail-cuff method relative to control; format: functional; set-up: scale not given: the % may be the effect or the level left; settings: time 21 day
Rattus norvegicus [17] = test: Antihypertensive activity in spontaneous hypertensive Wistar rat assessed as decrease in systolic blood pressure iv administered as bolus injection measured for 21 days by tail-cuff method; format: functional, organism-based; settings: dose 0.3-3 mg/kg, time 21.0 day
Rattus norvegicus [18] = test: Antihypertensive activity in spontaneous hypertensive Wistar rat assessed as decrease in systolic blood pressure at 1 mg/kg, iv administered as bolus injection measured for 21 days by tail-cuff method; format: functional; settings: time 21 day
Rattus norvegicus [19] = test: Antihypertensive activity in spontaneous hypertensive Wistar rat model assessed as reduction in blood pressure at 3 mg/kg, po measured after 12 hrs by radiotelemetry analysis; format: functional, organism-based
Rattus norvegicus [20] = test: Hypotensive effect in conscious normotensive Wistar rat assessed as reduction in arterial blood pressure at 3 mg/kg, po administered for 21 days by tail-cuff method relative to control; format: functional; set-up: scale not given: the % may be the effect or the level left; settings: time 21 day
Rattus norvegicus [21] = test: Antihypertensive activity in spontaneous hypertensive Wistar rat assessed as decrease in systolic blood pressure at 3 mg/kg, iv administered as bolus injection measured for 21 days by tail-cuff method; format: functional; settings: time 21 day
Rattus norvegicus [22] = test: Antihypertensive activity in spontaneous hypertensive Wistar rat assessed as decrease in systolic blood pressure at 0.3 mg/kg, iv administered as bolus injection measured for 21 days by tail-cuff method; format: functional; settings: time 21 day
Aorta = test: Vasorelaxant activity in New Zealand White rabbits aortic rings assessed as reduction in phenylephrine-induced contraction measured after 30 mins; format: functional, tissue-based; settings: Oryctolagus cuniculus, 0.5 h

Compound: Cc1nc2c(OCC3CCC3)cccn2c1C(=O)NCCOCCO
CLhep predicted [1]: 25 mL/min/kg
MEC [2]: 3 µM

Compound: CCCC[C@H](CO)NC(=O)c1c(C)nc2c(OCc3c(F)cc(F)cc3F)cccn12
CLhep predicted [1]: 26.7 mL/min/kg
MEC [2]: 0.1 µM

Compound: CCCC[C@H](CO)NC(=O)c1c(C)nc2c(OCCC(C)C)cccn12
CLhep predicted [1]: 48.3 mL/min/kg
MEC [2]: 1 µM

Compound: Cc1nc2c(OCC3CCC3)cccn2c1C(=O)NCCC1(O)CCCCC1
MEC [2]: 3 µM

Compound: Cc1nc2c(OCc3c(F)cccc3F)cccn2c1C(=O)NC(CN)c1ccc(F)c(F)c1 (single isomer, unassigned; enantiomer B)
Activity (Rattus norvegicus [11]): Dose-Dependent Effect
Activity (Rattus norvegicus [12]): 20%
Activity (Rattus norvegicus [13]): Active
Activity (Rattus norvegicus [14]): Dose-Dependent Effect
Activity (Rattus norvegicus [15]): Active
Activity (Rattus norvegicus [16]): 10%
Activity (Rattus norvegicus [17]): Dose-Dependent Effect
Activity (Rattus norvegicus [18]): -38 mmHg
Activity (Rattus norvegicus [19]): Active
Activity (Rattus norvegicus [20]): 8%
Activity (Rattus norvegicus [21]): -96 mmHg
Activity (Rattus norvegicus [22]): -12 mmHg
IC50 (Aorta): 625 nM

Compound: CCCC[C@H](CO)NC(=O)c1c(C)nc2c(OCc3c(F)cccc3F)cc(C3CC3)cn12
CLhep predicted [1]: 51.7 mL/min/kg
MEC [2]: 1 µM

Other lines, results leading:

efflux ratio at 2 h [3]: 0.6
half-life [4]: 48 min
solubility at 24 h [5]: 3 µg/mL (≈ 7.19 µM)
fraction unbound [6]: 0.049
Papp A→B at 2 h [7]: 41.3 ×10⁻⁶ cm/s
Vd [8]: 0.9 L/kg
CLhep predicted [1]: 33.3 mL/min/kg
clearance at […] [9]: 26.7 mL/min/kg
MEC [2]: 0.05 µM
bioavailability [10]: 65%
Compound: CCCC[C@H](CO)NC(=O)c1c(C)nc2c(OCc3c(F)cccc3F)cccn12

CLhep predicted [1]: 51.7 mL/min/kg
MEC [2]: 0.03 µM
Compound: CCCC[C@H](CO)NC(=O)c1c(C)nc2c(OCc3c(F)cccc3F)cc(F)cn12

CLhep predicted [1]: 25 mL/min/kg
MEC [2]: 0.3 µM
Compound: CCCC[C@H](CO)NC(=O)c1c(C)nc2c(OCc3cccc(F)c3F)cccn12
